The test system of assay [1] is C. acnes ribotype 5 (strain HL043PA1). The assay can be described thus: Minimum inhibitory concentration (MIC) against C. acnes. To be noted: Cutibacterium acnes; C. acnes ribotype 5 strain HL043PA1, 72 h incubation, OD600, growth inhibited by more than 90%. The class given is cell-based. As for the experimental part:
The minimum inhibitory concentrations (MICs) of CA-SA and magnolol against C. acnes were measured and compared with an antibiotic (clindamycin) and non-antibiotic agents (benzoyl peroxide and salicylic acid).
C. acnes ribotype 5 (strain HL043PA1) was cultured in a reinforced Clostridial broth medium (BD Diagnostics, Franklin Lakes, NJ) in an anaerobic environment (37° C., 175 rpm). Thereafter, each sample was dissolved in water or dimethyl sulfoxide (DMSO) and serially diluted two-fold, and 7.5 μL of the resulting solution was added to 142.5 μL of a bacterial suspension containing 7.5×10^5 CFU/mL, and incubated for 72 h. Thereafter, turbidity (OD600) was measured (Synergy 2 Multi-Mode Microplate Reader (BioTek Instrument, Winooski, VT)) to determine the MIC that inhibited bacterial growth by more than 90%.

Assay [2] deals with erythema induced by 1% sodium dodecyl sulfate (SDS). The assay can be described thus: Skin erythema recovery after SDS erythema induction (Mexameter erythema index). The class given is in vivo, human. To be noted: emulsion with magnolol 0.02% by weight, twice a day for 12 days, forearm, vs vehicle application group. As for the experimental part:
To evaluate the erythema recovery efficacy, an erythema index was evaluated before erythema induction, after erythema induction, and 12 days after product use in nine volunteers aged 25 to 35 years. Erythema was induced by applying 1% sodium dodecyl sulfate (SDS) dilution to the forearm for 24 hours, and an emulsion comprising CA-SA 5% by weight of, an emulsion comprising magnolol 0.02% by weight of, an emulsion comprising 5% CA-SA and 0.02% magnolol by weight, and an emulsion containing neither CA-SA nor magnolol (vehicle) was repeatedly applied to the same area twice a day, in the morning and evening, for 12 days.
The erythema index was measured using a Mexameter (MX 18, Courage+Khazaka electronic GmbH, Germany). The erythema index recovery rate was calculated using the following formula, and the effect was compared in terms of the percentage value increase in the erythema index recovery rate of the emulsion application group including each sample relative to the erythema index recovery rate of the vehicle application group (relative recovery rate).
In order to confirm the synergistic effect of CA-SA and magnolol, the predicted values (Colby values) and the actual measurement values were compared using the Colby Equation in the same manner as in Experimental Example 3, and the results are shown in Table 5.

The subject of a further assay is stratum corneum (SC). The assay can be described thus: Stratum corneum softening, tape stripping test on volunteer's skin. To be noted: magnolol 0.2 mg/ml, 50 μl solution on skin for 3 h, SC protein increase relative to control. The class given is in vivo, human. The protocol: To evaluate the softening efficacy on the stratum corneum (SC) of CA-SA and magnolol, a tape stripping test was performed on the SC.
After marking an application site on a volunteer's skin in advance, 50 μl of a solution including CA-SA and/or magnolol at the concentration shown in Table 4 was applied, and after three hours the skin surface was wiped to remove any remaining substances. A solution that included none of the evaluated substances was used as a control. A D-squame adhesive tape disk (CuDerm, Dallas, TX) was attached to the test site, and a cylindrical weight was used to apply a pressure of 150 g/cm^2 for three seconds, and then the pressure was removed and the tape was removed from the skin. Three tape strips were obtained from each marked site.
After collecting the tape strips in a polystyrene petri dish (Thermo Fisher), in order to perform keratinolysis quantification, 1 ml of 1 M NaOH was added to each petri dish and the dish was shaken for two hours. Thereafter, 75 μl of the solution was transferred to three wells (96-well plate, Corning), and each was neutralized with an equivalent volume of 1 M HCl. […] After 15 minutes, the optical density at 595 nm (OD 595 nm) was measured using an empty well as a correction value, and the amount of SC protein was quantified using a γ-globulin standard (Bio-Rad). […]

A further assay has as its system MMP-1. Kind of assay: Inhibition of MMP-1 expression induced by C. acnes lysate in HaCaT cells (ELISA). To be noted: magnolol 4 μg/ml, 4 h pretreatment, C. acnes lysate 30 min, vs positive control. The class given is cell-based, human. The protocol:
(§1) A human epidermal keratinocyte cell line (HaCaT cells) was sub-cultured at 37° C. in a humidified atmosphere containing 5% CO2 and 95% air. The medium used was DMEM containing 10% FBS (Gibco; Thermo Fisher, Waltham MA), penicillin (100 U/ml, Gibco), and streptomycin ([…], Gibco). Separately, the acne pathogen C. acnes ribotype 5 (Strain HL043PA1) (1.36×10^9 CFU/ml, OD=1.7) was cultured to prepare a C. acnes lysate. The C. acnes lysate was used to induce the expression of MMP-1 and VEGF in HaCaT cells.
(§2) Thereafter, the C. acnes lysate and the medium were mixed at a mass ratio of 3:7, and the resulting mixture was applied to HaCaT cells for 30 minutes. The supernatant was collected, and the concentrations of MMP-1 and VEGF were measured by enzyme-linked immunosorbent assay (ELISA) (R&D Systems Inc., Minneapolis, MN) using the manufacturer's protocol. […] The experimental group treated only with the C. acnes lysate was set as the positive control group, and the reduction value of the sample treatment group compared to the positive control group was calculated and is shown in Table 3. […]
(§3) Colby Equation: E=(A+B)−(A*B/100); E: predicted value; A: efficacy of active ingredient A; B: efficacy of active ingredient B. When the actual measurement value is greater than the predicted value, it is determined that there is a synergistic effect.

The next assay has as its system SZ95 cells. Kind of assay: Lipid production inhibition in testosterone-treated SZ95 cells (Nile red). To be noted: magnolol 0.5 μg/ml, 48 h, vs positive control. The class given is cell-based. As for the experimental part: It was evaluated whether CA-SA and/or magnolol could control sebum secretion by inhibiting lipid production.
SZ95 cells, which are […] sebaceous cells, were cultured and maintained in a humidified atmosphere containing 5% CO2 and 95% air at 37° C. The medium used was Dulbecco's Modified Eagle Medium (DMEM)/Ham's F12 medium (Gibco) supplemented with 10% fetal bovine serum (FBS) and 5 ng/ml recombinant human epidermal growth factor (Invitrogen; Thermo Fisher, Waltham MA). After performing sub-confluent culture, cells were harvested with 0.05% trypsin-ethylenediaminetetraacetic acid (EDTA) (Gibco) and passaged, and cells obtained from the second passage were used.
The cells were seeded at 1×10^5 cells per well in a 24-well plate (Greiner, Frickenhausen, Germany) and cultured at 37° C. and 5% CO2 for 24 h. Thereafter, the cells were treated with 2×10^−8 M testosterone for 24 h to stimulate lipid production. […]
The well plate was covered with aluminum foil to block light, and fluorescence was measured at Ex/Em=550/580 nm using a microplate reader (BioTek Instruments, Inc.). The percentage value of the absolute fluorescence unit compared to the negative control group was used as the result value. Thereafter, the reduction value of the sample treatment group compared to the positive control group was calculated and is shown in Table 2.

The next assay has as its system VEGF. Kind of assay: Inhibition of VEGF expression induced by C. acnes lysate in HaCaT cells (ELISA). The class given is cell-based, human. To be noted: magnolol 4 μg/ml, 4 h pretreatment, C. acnes lysate 30 min, vs positive control. As for the experimental part:
as §1, §2, §3

The structures appear in SMILES notation.

On to `O=C(OOC(=O)c1ccccc1)c1ccccc1` [Benzoyl peroxide, benzoyl peroxide], for which the minimal inhibitory concentration (MIC) in assay [1] is 2500 µg/mL.
Regarding `CCC[C@@H]1C[C@@H](C(=O)N[C@@H]([C@H]2O[C@H](SC)[C@H](O)[C@@H](O)[C@H]2O)[C@H](C)Cl)N(C)C1` [Clindamycin, clindamycin], the MIC in assay [1] is 156 µg/mL.
In the case of `C=CCc1ccc(O)c(-c2cc(CC=C)ccc2O)c1` [Magnolol, magnolol], in assay [2], the “Relative recovery rate (erythema index)” value was determined as 16.2%. In addition, in the assay with stratum corneum (SC), the SC exfoliation rate was −22.3%. In addition, in the assay with MMP-1, the MMP-1 reduction value was 33.6%. Moreover, in the assay with SZ95 cells, the “Reduction value (lipid production)” value was found to be 3.8%. Also, the VEGF reduction value in the assay with VEGF was 21.2%.
`O=C(O)c1ccccc1O` [Salicylic acid, salicylic acid]: the minimal inhibitory concentration (MIC) in assay [1] is 4000 to 8000 µg/mL.
